Experimental data from patent US5578596A, “2-alkoxy-5,6,7,8-tetrahydroquinoxaline derivatives, and production method and use thereof” (Asahi Kasei Kogyo Kabushiki Kaisha, priority 1992, dated 1996).

Tests used:
[1] = target: T1, serotonin 1A (5HT1A) receptor (Rattus norvegicus, UniProt P19327); experiment: Affinity for serotonin 1A (5HT1A) receptor: inhibition of 3H-8-OH-DPAT binding to rat hippocampal membrane fraction; settings: test compound as hydrochloride
T1 construct: The resultant precipitate was used as a rat hippocampal membrane fraction in the following procedures; from tissue; host or cells: hippocampal membrane fraction of male SD rat (7 weeks old; animals from Charles River)
T1 sequence (P19327 1-422): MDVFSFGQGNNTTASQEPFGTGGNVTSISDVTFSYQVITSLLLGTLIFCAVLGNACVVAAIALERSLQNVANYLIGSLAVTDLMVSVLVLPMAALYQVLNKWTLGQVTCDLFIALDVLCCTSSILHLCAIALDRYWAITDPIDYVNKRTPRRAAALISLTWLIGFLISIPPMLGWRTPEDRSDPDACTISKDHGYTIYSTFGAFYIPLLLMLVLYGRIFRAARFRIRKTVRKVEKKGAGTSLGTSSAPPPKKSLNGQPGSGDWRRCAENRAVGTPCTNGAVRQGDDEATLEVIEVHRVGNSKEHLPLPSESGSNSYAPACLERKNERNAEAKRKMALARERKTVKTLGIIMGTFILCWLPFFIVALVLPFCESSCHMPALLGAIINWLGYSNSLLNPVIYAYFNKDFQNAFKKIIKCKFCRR
Procedure: 1. Affinity for serotonin 1A (5HT1A) receptor
(A) Preparation of rat hippocampal membrane fraction
A male SD strain rat (7-week old; Charles River) was decapitated, and brain was taken out therefrom quickly. 50 mM Tris-HCl buffer (pH 7.4) was added to the brain under ice cooling to obtain a suspension. The resultant suspension was homogenized, and then subjected to centrifugation at 48000 g for 15 minutes, to thereby obtain a precipitate. The precipitate was resuspended in the same Tris-HCl buffer as used above. The resultant suspension was incubated at 30° C. for 20 minutes to decompose endogenous serotonin of the rat hippocampal membrane, followed by centrifugation at 48000 g for 15 minutes to thereby obtain a precipitate. The resultant precipitate was used as a rat hippocampal membrane fraction in the following procedures.
(B) Method for the evaluation of the binding ability of ^3 H-8-hydroxy-dipropylaminotetralin (^3 H-8-OH-DPAT) to serotonin 1A receptor
The rat hippocampal membrane fraction prepared in step (A) above (about 100 to 200 μg in terms of proteins) was reacted with 0.5 nM (final concentration) ^3 H-8-OH-DPAT (which is commercially available from DuPont-NEN Research Products) and 10 μM (final concentration) pargyline (which is commercially available from Sigma Chemical Company) at 30° C. for 30 minutes to effect a reaction. The resultant reaction mixture was subjected to suction filtration using a Whatman GF/C filter, to thereby terminate the reaction. The radio-activity of ^3 H-8-OH-DPAT adsorbed on the filter was determined using a liquid scintillation counter. The obtained value is regarded as a total amount (TB) of specifically binding ^3 H-8-OH-DPAT and non-specifically binding ^3 H-8-OH-DPAT.
On the other hand, substantially the same procedure as mentioned above was repeated, except that 10 μM (final concentration) serotonin was added to the ^3 H-8-OH-DPAT and pargyline. The radioactivity of ^3 H-8-OH-DPAT adsorbed on the filter was determined in the same manner as mentioned above. The obtained value is regarded as the amount (NB) of non-specifically binding ^3 H-8-OH-DPAT.
Further, substantially the same procedure as mentioned above was repeated, except that, instead of serotonin, a test compound was used in a predetermined concentration. The radioactivity of ^3 H-8-OH-DPAT adsorbed on the filter was determined in the same manner as mentioned above. The obtained value is regarded as the amount (DTB) of binding ^3 H-8-OH-DPAT.
(C) Calculation of Ki value
The inhibition ratio of the test compound (at a certain concentration) against the binding of 3H-8-OH-DPAT (the inhibition ratio is hereinafter referred to simply as "binding inhibition ratio") was calculated according to the following formula:
Binding inhibition ratio (%)=100-(DTB-NB).div.(TB-NB)×100
With respect to each of the test compounds, the binding inhibition ratios at various concentrations (from a higher concentration to a lower concentration) were determined. The binding inhibition ratios were plotted, taking the logarithmic value of the concentration of test compound as the abscissa value, and the binding inhibition ratio as the ordinate value. Then, a curve was drawn by non-linear least square method.
The Ki value was determined according to the following formula:
[L] is the concentration (0.2 nM) of a radioactive ligand (^3 H-8-OH-DPAT) used in the test;

[2] = test system: Suncus murinus (motion sickness emesis); experiment: Activities against motion sickness: acceleration-stimulus induced emesis in suncus; format: in vivo; settings: 30 min before acceleration-stimulus (4 cm, 1 Hz), observed 10 min, hydrochloride, 4 suncus
From the text: The activities of individual compounds against motion sickness were examined using Suncus murinus. Suncus murinus is a small animal belonging to the Soricidae family. It has been known that suncus is likely to suffer from motion sickness and is susceptible to occurrence of emesis [see "Seitai-no-kagaku (Science of living body)", 41, 538 (1990)]. Suncus is likely to show symptoms like the symptoms of human motion sickness under the stimulus of simple acceleration, finally leading to the occurrence of emesis. It has been recognized that motion sickness is caused by the occurrence of disorder in information, such as vision, equilibrium sense and the like, or by a stimulus which has never been memorized. Further, it has been recognized that the disorder in the inner earvestibular nucleus pathway and the high-order function of brain take part in the occurrence of motion sickness. Therefore, medicines capable of suppressing the occurrence of emesis of suncus would be useful for preventing and treating motion sickness, space sickness, emesis, dizziness and the like.
In this test, test compounds were individually administered intraperitoneally to suncus.
The time for occurrence of emesis was measured with respect to each of the test compounds, and the results are shown in Table 3.

SMILES | Ki [1] [nM] | Time for occurrence of emesis ([2]; 3 mg/kg intraperitoneal) | Time for occurrence of emesis ([2]; 1 mg/kg intraperitoneal)
c1cnc(N2CCN(CCCCOc3cnc4c(n3)CCCC4)CC2)nc1 [Compound 301, 2-[4-{4-(2-Pyrimidinyl)-1-piperazinyl}butoxy]-5,6,7,8-tetrahydroquinoxaline] | 6 | Emesis did not occur | 
Cc1nc2c(nc1OCCCCN1CCN(c3ccccn3)CC1)CCCC2 [Compound 409] | 16 |  | 
Cc1nc2c(nc1OCCCCN1CCN(c3ncccn3)CC1)CCCC2 [Compound 410] | 24 |  | 
Cc1cc(C)nc(N2CCN(CCCCOc3cnc4c(n3)CCCC4)CC2)n1 [Compound 481, 2-[4-{4-(4,6-Dimethyl-2-pyrimidinyl)-1-piperazinyl}butoxy]-5,6,7,8-tetrahydroquinoxaline] | 5.3 |  | 
Clc1cccc(N2CCN(CCCCOc3cnc4c(n3)CCCC4)CC2)n1 [Compound 500, 2-[4-{4-(6-Chloro-2-pyridyl)-1-piperazinyl}butoxy]-5,6,7,8-tetrahydroquinoxaline] | 2.1 |  | Emesis did not occur
Cc1cccc(N2CCN(CCCCOc3cnc4c(n3)CCCC4)CC2)n1 [Compound 501, 2-[4-{4-(6-Methyl-2-pyridyl)-1-piperazinyl}butoxy]-5,6,7,8-tetrahydroquinoxaline] | 0.6 |  | Emesis did not occur
Clc1cccnc1N1CCN(CCCCOc2cnc3c(n2)CCCC3)CC1 [Compound 502, 2-[4-{4-(3-Chloro-2-pyridyl)-1-piperazinyl}butoxy]-5,6,7,8-tetrahydroquinoxaline] | 13 |  | 
Cc1ccnc(N2CCN(CCCCOc3cnc4c(n3)CCCC4)CC2)n1 [Compound 504, 2-[4-{4-(4-Methyl-2-pyrimidinyl)-1-piperazinyl}butoxy]-5,6,7,8-tetrahydroquinoxaline] | 3.9 |  | Emesis did not occur
c1ccc(N2CCN(CCCCCOc3cnc4c(n3)CCCC4)CC2)nc1 [Compound 511, 2-[5-{4-(2-Pyridyl)-1-piperazinyl}pentoxy]-5,6,7,8-tetrahydroquinoxaline] | 8.4 |  | 
c1cnc(N2CCN(CCCCCOc3cnc4c(n3)CCCC4)CC2)nc1 [Compound 512, 2-[5-{4-(2-pyrimidinyl)-1-piperazinyl}pentoxy]-5,6,7,8-tetrahydroquinoxaline] | 23 |  | 
N#Cc1cccnc1N1CCN(CCCCOc2cnc3c(n2)CCCC3)CC1 [Compound 514, 2-[4-{4-(3-Cyano-2-pyridyl)-1-piperazinyl}butoxy]-5,6,7,8-tetrahydroquinoxaline] | 4.8 |  | 
CCOc1cccc(N2CCN(CCCCOc3cnc4c(n3)CCCC4)CC2)n1 [Compound 524, 2-[4-{4-(6-Ethoxy-2-pyridyl)-1-piperazinyl}butoxy]-5,6,7,8-tetrahydroquinoxaline] | 1.9 |  | Emesis did not occur
c1ccc(N2CCN(CCCOc3cnc4c(n3)CCCC4)CC2)nc1 [Compound 537, 2-[3-{4-(2-Pyridyl)-1-piperazinyl}propoxy]-5,6,7,8-tetrahydroquinoxaline] | 14 |  | 
c1cnc(N2CCN(CCCOc3cnc4c(n3)CCCC4)CC2)nc1 [Compound 538, 2-[3-{4-(2-pyrimidinyl)-1-piperazinyl}propoxyl]-5,6,7,8-tetrahydroquinoxaline] | 25 |  | 
COc1cccc(N2CCN(CCCCOc3cnc4c(n3)CCCC4)CC2)n1 [Compound 539, 2-[4-{4-(6-Methoxy-2-pyridyl)-1-piperazinyl}butoxy]-5,6,7,8-tetrahydroquinoxaline] | 1.3 |  | Emesis did not occur
COc1cc(OC)nc(N2CCN(CCCCOc3cnc4c(n3)CCCC4)CC2)n1 [Compound 549, 2-[4-{4-(4,6-Dimethoxy-2-pyrimidinyl)-1-piperazinyl}butoxy]-5,6,7,8-tetrahydroquinoxaline] | 6.6 |  | 
COc1cccnc1N1CCN(CCCCOc2cnc3c(n2)CCCC3)CC1 [Compound 557, 2-[4-{4-(3-Methoxy-2-pyridyl)-1-piperazinyl}butoxy]-5,6,7,8-tetrahydroquinoxaline] | 1.5 |  | 
Cc1cc(C)c(C#N)c(N2CCN(CCCCOc3cnc4c(n3)CCCC4)CC2)n1 [Compound 561, 2-[4-{4-(3-Cyano-4-6-dimethyl-2-pyridyl)-1-piperazinyl}butoxy]-5,6,7,8-tetrahydroquinoxaline] | 16 |  | 
COc1cc(C)nc(N2CCN(CCCCOc3cnc4c(n3)CCCC4)CC2)n1 [Compound 562, 2-[4-{4-(4-Methoxy-6-methyl-2-pyrimidinyl)-1-piperazinyl}butoxy]-5,6,7,8-tetrahydroquinoxaline] | 11 | Emesis did not occur | 
Cc1cc(C)nc(N2CCN(CCCCOc3cnc4c(n3)CCCC4)CC2)c1 [Compound 569, 2-[4-{4-(4,6-Dimethyl-2-pyridyl)-1-piperazinyl}butoxy]-5,6,7,8-tetrahydroquinoxaline] | 6.8 |  | 
Cc1ccc(C)c(N2CCN(CCCCOc3cnc4c(n3)CCCC4)CC2)n1 [Compound 598, 2-[4-{4-(3,6-Dimethyl-2-pyridyl)-1-piperazinyl}butoxy]-5,6,7,8-tetrahydroquinoxaline] | 25 |  | 
CCCOc1cccc(N2CCN(CCCCOc3cnc4c(n3)CCCC4)CC2)n1 [Compound 629, 2-[4-{4-(6-Propoxy-2-pyridyl)-1-piperazinyl}butoxy]-5,6,7,8-tetrahydroquinoxaline] | 1.8 | Emesis did not occur | 
CC(C)Oc1cccc(N2CCN(CCCCOc3cnc4c(n3)CCCC4)CC2)n1 [Compound 630, 2-[4-{4-(6-Isopropoxy-2-pyridyl)-1-piperazinyl}butoxy]-5,6,7,8-tetrahydroquinoxaline] | 3 | Emesis did not occur | 
FC(F)(F)c1ccnc(N2CCN(CCCCOc3cnc4c(n3)CCCC4)CC2)c1 [Compound 639, 2-[4-{4-(4-Trifluoromethyl-2-pyridyl)-1-piperazinyl}butoxy]-5,6,7,8-tetrahydroquinoxaline] | 11 |  | 
FC(F)(F)c1cccc(N2CCN(CCCCOc3cnc4c(n3)CCCC4)CC2)n1 [Compound 640, 2-[4-{4-(6-Trifluoromethyl-2-pyridyl)-1-piperazinyl}butoxy]-5,6,7,8-tetrahydroquinoxaline] | 5.2 |  | 
